In the supplement of paper PMC10627819:

Experiments:
S. pneumoniae D39V [1] = assay: Bliss interaction score (quartile over a dose matrix) (fitness difference); higher = more antagonism (negative = synergy)
Method in brief: (§1)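 The Bliss score was calculated by subtracting the expected fitness, the product of single-drug values, from the observed fitness. OD595 at entry into stationary phase, over the plate's robust no-drug mean and capped at 1, served as the fitness readout. Single-drug values were inferred from combination data, and scores are summarised by quartiles across technical, biological and donor/recipient replicates.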

S. aureus Newman = assay: as above
Method in brief: as §1

S. aureus DSM 20231 = assay: as above
Method in brief: as §1

B. subtilis 168 = assay: as above
Method in brief: as §1

S. pneumoniae D39V [2] = assay: fitness (endpoint OD595 vs no drug) (fraction); higher = more growth
Method in brief: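 Background-subtracted growth curves were the basis for fitness, taken as the optical density at entry into stationary phase over the robust mean of no-drug control wells. A cap of 1 was applied. The curves came from OD595 readings every 30 min for 14 h at 37 °C, in 384-well plates seeded at OD595 0.01 with 30 µl, or 55 µl for S. pneumoniae.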
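For Bliss interaction score (quartile over a dose matrix) in this document: first quartile when negative (synergy) and third quartile when positive (antagonism).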

CC[C@H]1OC(=O)[C@H](C)[C@@H](O[C@H]2C[C@@](C)(OC)[C@@H](O)[C@H](C)O2)[C@H](C)[C@@H](O[C@@H]2O[C@H](C)C[C@H](N(C)C)[C@H]2O)[C@](C)(OC)C[C@@H](C)C(=O)[C@H](C)[C@@H](O)[C@]1(C)O [Clarithromycin] + C/C(=C\C(=O)OCCCCCCCCC(=O)O)C[C@@H]1OC[C@H](C[C@@H]2O[C@H]2[C@@H](C)[C@H](C)O)[C@@H](O)[C@H]1O [Pseudomonic acid]
Bliss interaction score (S. pneumoniae D39V [1]): 0.0643
Bliss interaction score (S. aureus Newman): 0.0379
Bliss interaction score (S. aureus DSM 20231): 0.0125
Bliss interaction score (B. subtilis 168): 0.0528
fitness (S. pneumoniae D39V [2]; first compound 0.007812 µg/mL, partner 0.03 µg/mL, one replicate): 0.925
fitness (S. pneumoniae D39V [2]; first compound 0.007812 µg/mL, partner 0.06 µg/mL, one replicate): 0.841
fitness (S. pneumoniae D39V [2]; first compound 0.007812 µg/mL, partner 0.12 µg/mL, one replicate): 0.68
fitness (S. pneumoniae D39V [2]; first compound 0.01562 µg/mL, partner 0.03 µg/mL, one replicate): 0.852
fitness (S. pneumoniae D39V [2]; first compound 0.01562 µg/mL, partner 0.06 µg/mL, one replicate): 0.838
fitness (S. pneumoniae D39V [2]; first compound 0.01562 µg/mL, partner 0.12 µg/mL, one replicate): 0.615
fitness (S. pneumoniae D39V [2]; first compound 0.03125 µg/mL, partner 0.03 µg/mL, one replicate): 0.667
fitness (S. pneumoniae D39V [2]; first compound 0.03125 µg/mL, partner 0.06 µg/mL, one replicate): 0.673
fitness (S. pneumoniae D39V [2]; first compound 0.03125 µg/mL, partner 0.12 µg/mL, one replicate): 0.412
fitness (S. pneumoniae D39V [2]; first compound 0.0625 µg/mL, partner 0.03 µg/mL): 0.683
fitness (S. pneumoniae D39V [2]; first compound 0.0625 µg/mL, partner 0.12 µg/mL): 0.431
fitness (S. pneumoniae D39V [2]; first compound 0.07 µg/mL, partner 0.03 µg/mL): 0.159
fitness (S. pneumoniae D39V [2]; first compound 0.07 µg/mL, partner 0.06 µg/mL): 0.12
fitness (S. pneumoniae D39V [2]; first compound 0.07 µg/mL, partner 0.12 µg/mL): 0.101
fitness (S. pneumoniae D39V [2]; first compound 0.125 µg/mL, partner 0.03 µg/mL): 0.427
fitness (S. pneumoniae D39V [2]; first compound 0.125 µg/mL, partner 0.06 µg/mL): 0.399
fitness (S. pneumoniae D39V [2]; first compound 0.125 µg/mL, partner 0.12 µg/mL): 0.24
fitness (S. pneumoniae D39V [2]; first compound 0.14 µg/mL, partner 0.03 µg/mL): 0.0976
fitness (S. pneumoniae D39V [2]; first compound 0.14 µg/mL, partner 0.06 µg/mL): 0.102
fitness (S. pneumoniae D39V [2]; first compound 0.14 µg/mL, partner 0.12 µg/mL): 0.0908
fitness (S. pneumoniae D39V [2]; first compound 0.25 µg/mL, partner 0.03 µg/mL): 0.258
fitness (S. pneumoniae D39V [2]; first compound 0.25 µg/mL, partner 0.06 µg/mL): 0.174
fitness (S. pneumoniae D39V [2]; first compound 0.25 µg/mL, partner 0.12 µg/mL): 0.117
fitness (S. pneumoniae D39V [2]; first compound 0.28 µg/mL, partner 0.03 µg/mL): 0.0736
fitness (S. pneumoniae D39V [2]; first compound 0.28 µg/mL, partner 0.06 µg/mL): 0.0966
fitness (S. pneumoniae D39V [2]; first compound 0.28 µg/mL, partner 0.12 µg/mL): 0.0699

CC[C@H]1OC(=O)[C@H](C)[C@@H](O[C@H]2C[C@@](C)(OC)[C@@H](O)[C@H](C)O2)[C@H](C)[C@@H](O[C@@H]2O[C@H](C)C[C@H](N(C)C)[C@H]2O)[C@](C)(OC)C[C@@H](C)C(=O)[C@H](C)[C@@H](O)[C@]1(C)O [Clarithromycin] + CC1=C\[C@@H](O)CC(=O)Cc2nc(co2)C(=O)N2CCC=C2C(=O)O[C@H](C(C)C)[C@H](C)/C=C/C(=O)NC\C=C\1 [Virginiamycin M1]
Bliss interaction score (S. pneumoniae D39V [1]): 0.0597
Bliss interaction score (S. aureus Newman): 0.0322
Bliss interaction score (S. aureus DSM 20231): 0.0856
Bliss interaction score (B. subtilis 168): 0.0359
fitness (S. pneumoniae D39V [2]; first compound 0.007812 µg/mL, partner 0.5 µg/mL, one replicate): 0.856
fitness (S. pneumoniae D39V [2]; first compound 0.007812 µg/mL, partner 1 µg/mL, one replicate): 0.852
fitness (S. pneumoniae D39V [2]; first compound 0.007812 µg/mL, partner 2 µg/mL, one replicate): 0.853
fitness (S. pneumoniae D39V [2]; first compound 0.01562 µg/mL, partner 0.5 µg/mL, one replicate): 0.884
fitness (S. pneumoniae D39V [2]; first compound 0.01562 µg/mL, partner 1 µg/mL, one replicate): 0.85
fitness (S. pneumoniae D39V [2]; first compound 0.01562 µg/mL, partner 2 µg/mL, one replicate): 0.808
fitness (S. pneumoniae D39V [2]; first compound 0.03125 µg/mL, partner 0.5 µg/mL, one replicate): 0.758
fitness (S. pneumoniae D39V [2]; first compound 0.03125 µg/mL, partner 1 µg/mL, one replicate): 0.719
fitness (S. pneumoniae D39V [2]; first compound 0.03125 µg/mL, partner 2 µg/mL, one replicate): 0.682
fitness (S. pneumoniae D39V [2]; first compound 0.0625 µg/mL, partner 0.15 µg/mL, one replicate): 0.788
fitness (S. pneumoniae D39V [2]; first compound 0.0625 µg/mL, partner 0.3 µg/mL, one replicate): 0.734
fitness (S. pneumoniae D39V [2]; first compound 0.0625 µg/mL, partner 0.5 µg/mL, one replicate): 0.756
fitness (S. pneumoniae D39V [2]; first compound 0.0625 µg/mL, partner 1 µg/mL, one replicate): 0.608
fitness (S. pneumoniae D39V [2]; first compound 0.0625 µg/mL, partner 2 µg/mL): 0.647
fitness (S. pneumoniae D39V [2]; first compound 0.07 µg/mL, partner 0.5 µg/mL): 0.119
fitness (S. pneumoniae D39V [2]; first compound 0.07 µg/mL, partner 1 µg/mL): 0.118
fitness (S. pneumoniae D39V [2]; first compound 0.07 µg/mL, partner 2 µg/mL): 0.124
fitness (S. pneumoniae D39V [2]; first compound 0.125 µg/mL, partner 0.15 µg/mL, one replicate): 0.645
fitness (S. pneumoniae D39V [2]; first compound 0.125 µg/mL, partner 0.3 µg/mL, one replicate): 0.635
fitness (S. pneumoniae D39V [2]; first compound 0.125 µg/mL, partner 0.5 µg/mL, one replicate): 0.529
fitness (S. pneumoniae D39V [2]; first compound 0.125 µg/mL, partner 1 µg/mL, one replicate): 0.328
fitness (S. pneumoniae D39V [2]; first compound 0.125 µg/mL, partner 2 µg/mL): 0.463
fitness (S. pneumoniae D39V [2]; first compound 0.14 µg/mL, partner 0.5 µg/mL): 0.0772
fitness (S. pneumoniae D39V [2]; first compound 0.14 µg/mL, partner 1 µg/mL): 0.0875
fitness (S. pneumoniae D39V [2]; first compound 0.14 µg/mL, partner 2 µg/mL): 0.105
fitness (S. pneumoniae D39V [2]; first compound 0.25 µg/mL, partner 0.15 µg/mL, one replicate): 0.463
fitness (S. pneumoniae D39V [2]; first compound 0.25 µg/mL, partner 0.3 µg/mL, one replicate): 0.425
fitness (S. pneumoniae D39V [2]; first compound 0.25 µg/mL, partner 0.5 µg/mL, one replicate): 0.361
fitness (S. pneumoniae D39V [2]; first compound 0.25 µg/mL, partner 1 µg/mL, one replicate): 0.132
fitness (S. pneumoniae D39V [2]; first compound 0.25 µg/mL, partner 2 µg/mL): 0.288
fitness (S. pneumoniae D39V [2]; first compound 0.28 µg/mL, partner 0.5 µg/mL): 0.0473
fitness (S. pneumoniae D39V [2]; first compound 0.28 µg/mL, partner 1 µg/mL): 0.0656
fitness (S. pneumoniae D39V [2]; first compound 0.28 µg/mL, partner 2 µg/mL): 0.0464

C/C(=C\C(=O)OCCCCCCCCC(=O)O)C[C@@H]1OC[C@H](C[C@@H]2O[C@H]2[C@@H](C)[C@H](C)O)[C@@H](O)[C@H]1O [Pseudomonic acid] + CC[C@H]1OC(=O)[C@H](C)C(=O)[C@H](C)[C@@H](O[C@@H]2O[C@H](C)C[C@H](N(C)C)[C@H]2O)[C@](C)(OC)C[C@@H](C)C(=O)[C@H](C)[C@H]2N(CCCCn3cnc(-c4cccnc4)c3)C(=O)O[C@]12C [Telithromycin]
Bliss interaction score (S. pneumoniae D39V [1]): -0.0569
Bliss interaction score (S. aureus Newman): -0.028
Bliss interaction score (S. aureus DSM 20231): 0.0119
Bliss interaction score (B. subtilis 168): 0.0359

C/C(=C\C(=O)OCCCCCCCCC(=O)O)C[C@@H]1OC[C@H](C[C@@H]2O[C@H]2[C@@H](C)[C@H](C)O)[C@@H](O)[C@H]1O [Pseudomonic acid] + COc1cc(Cc2cnc(N)nc2N)cc(OC)c1OC [Trimethoprim]
Bliss interaction score (S. pneumoniae D39V [1]): -0.143
Bliss interaction score (S. aureus Newman): 0.0264
Bliss interaction score (S. aureus DSM 20231): 0.0182
Bliss interaction score (B. subtilis 168): 0.0595

C/C(=C\C(=O)OCCCCCCCCC(=O)O)C[C@@H]1OC[C@H](C[C@@H]2O[C@H]2[C@@H](C)[C@H](C)O)[C@@H](O)[C@H]1O [Pseudomonic acid] + Oc1cc(Cl)ccc1Oc1ccc(Cl)cc1Cl [Triclosan]
Bliss interaction score (S. pneumoniae D39V [1]): 0.0696
Bliss interaction score (S. aureus Newman): -0.0174
Bliss interaction score (S. aureus DSM 20231): -0.0069
Bliss interaction score (B. subtilis 168): -0.0255

CCCCCCCCCC(=O)N[C@H]1[C@H](Oc2c3cc4cc2Oc2ccc(cc2Cl)[C@@H](O[C@@H]2O[C@H](CO)[C@@H](O)[C@H](O)[C@H]2NC(C)=O)[C@@H]2NC(=O)[C@H](NC(=O)[C@@H]4NC(=O)[C@H]4NC(=O)[C@@H](Cc5ccc(c(Cl)c5)O3)NC(=O)[C@H](N)c3ccc(O)c(c3)Oc3cc(O)cc4c3)c3ccc(O)c(c3)-c3c(O[C@H]4O[C@H](CO)[C@@H](O)[C@H](O)[C@@H]4O)cc(O)cc3[C@@H](C(=O)O)NC2=O)O[C@H](CO)[C@@H](O)[C@@H]1O [Teicoplanin] + CC[C@H]1OC(=O)[C@H](C)C(=O)[C@H](C)[C@@H](O[C@@H]2O[C@H](C)C[C@H](N(C)C)[C@H]2O)[C@](C)(OC)C[C@@H](C)C(=O)[C@H](C)[C@H]2N(CCCCn3cnc(-c4cccnc4)c3)C(=O)O[C@]12C [Telithromycin]
Bliss interaction score (S. pneumoniae D39V [1]; main component drawn): 0.0575
Bliss interaction score (S. aureus Newman; main component drawn): 0.0616
Bliss interaction score (S. aureus DSM 20231; main component drawn): 0.0617
Bliss interaction score (B. subtilis 168; main component drawn): 0.0347

CCCCCCCCCC(=O)N[C@H]1[C@H](Oc2c3cc4cc2Oc2ccc(cc2Cl)[C@@H](O[C@@H]2O[C@H](CO)[C@@H](O)[C@H](O)[C@H]2NC(C)=O)[C@@H]2NC(=O)[C@H](NC(=O)[C@@H]4NC(=O)[C@H]4NC(=O)[C@@H](Cc5ccc(c(Cl)c5)O3)NC(=O)[C@H](N)c3ccc(O)c(c3)Oc3cc(O)cc4c3)c3ccc(O)c(c3)-c3c(O[C@H]4O[C@H](CO)[C@@H](O)[C@H](O)[C@@H]4O)cc(O)cc3[C@@H](C(=O)O)NC2=O)O[C@H](CO)[C@@H](O)[C@@H]1O [Teicoplanin] + Oc1cc(Cl)ccc1Oc1ccc(Cl)cc1Cl [Triclosan]
Bliss interaction score (S. pneumoniae D39V [1]; main component drawn): -0.106
Bliss interaction score (S. aureus Newman; main component drawn): -0.0356
Bliss interaction score (S. aureus DSM 20231; main component drawn): 0.0695
Bliss interaction score (B. subtilis 168; main component drawn): 0.0943
